In US6613718B2, “Aryl ether derivatives and processes for their preparation and herbicidal and desiccant compositions containing them” (Ishihara Sangyo Kaisha, Ltd., priority 2001, dated 2003):

What was measured:
Type in all cases: in vivo
Conditions in all cases: 14 days after application
[1] = system: soybean (Glycine max L., var. Pella 86, SOY); test: Post-emerge greenhouse screening, crop safety (phytotoxicity rating)
Summary of the method: (§1)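 Plants grown in sandy loam pots received acetone solutions of compound by moving-nozzle track sprayer, 15–1000 g ai/ha. In post-emergence runs the foliage was at the 2-3 leaf stage and spray contained 0.25% v/v non-ionic surfactant. Damage was assessed visually after 14 days (0-100).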

[2] = system: upland rice (Oryza sp., var.Tebonnet, RICE); test: as above
Summary of the method: as §1

[3] = system: lambsquarters (Chenopodium album, CHEAL); test: Pre-emerge greenhouse herbicide activity screening, phytotoxicity rating
Summary of the method: as §1

[4] = system: ivyleaf morningglory (Ipomoea hederacea, IPOHE); test: as above
Summary of the method: as §1

[5] = system: johnsongrass (Sorghum halepense, SORHA); test: as above
Summary of the method: as §1

[6] = system: green foxtail (Setaria viridis, SETVI); test: as above
Summary of the method: as §1

[7] = system: velvetleaf (Abutilon theophrasti, ABUTH); test: as above
Summary of the method: as §1

[8] = system: sicklepod (Cassia obtusifolia, CASOB); test: as above
Summary of the method: as §1

[9] = system: redroot pigweed (Amaranthus retroflexus, AMARE); test: as above
Summary of the method: as §1

[10] = system: large crabgrass (Digitaria sanguinalis, DIGSA); test: as above
Summary of the method: as §1

[11] = system: barnyardgrass (Echinochloa crus-galli, ECHCG); test: as above
Summary of the method: as §1

[12] = system: common ragweed (Ambrosia artemisiifolia L., AMBEL); test: as above
Summary of the method: as §1

[13] = system: lambsquarters (Chenopodium album, CHEAL); test: Post-emerge greenhouse herbicide activity screening, phytotoxicity rating
Summary of the method: as §1

[14] = system: ivyleaf morningglory (Ipomoea hederacea, IPOHE); test: as above
Summary of the method: as §1

[15] = system: johnsongrass (Sorghum halepense, SORHA); test: as above
Summary of the method: as §1

[16] = system: green foxtail (Setaria viridis, SETVI); test: as above
Summary of the method: as §1

[17] = system: velvetleaf (Abutilon theophrasti, ABUTH); test: as above
Summary of the method: as §1

[18] = system: sicklepod (Cassia obtusifolia, CASOB); test: as above
Summary of the method: as §1

[19] = system: redroot pigweed (Amaranthus retroflexus, AMARE); test: as above
Summary of the method: as §1

[20] = system: large crabgrass (Digitaria sanguinalis, DIGSA); test: as above
Summary of the method: as §1

[21] = system: barnyardgrass (Echinochloa crus-galli, ECHCG); test: as above
Summary of the method: as §1

[22] = system: common ragweed (Ambrosia artemisiifolia L., AMBEL); test: as above
Summary of the method: as §1

[23] = system: soybean (Glycine max L., var. Pella 86, SOY); test: Pre-emerge greenhouse screening, crop safety (phytotoxicity rating)
Summary of the method: as §1

[24] = system: field corn (Zea mays L., var. Dekalb 535, CORN); test: as above
Summary of the method: as §1

[25] = system: upland rice (Oryza sp., var.Tebonnet, RICE); test: as above
Summary of the method: as §1

[26] = system: field corn (Zea mays L., var. Dekalb 535, CORN); test: Post-emerge greenhouse screening, crop safety / corn selectivity (phytotoxicity rating)
Summary of the method: as §1

SMILES: Cn1c(C(F)(F)F)cc(=O)n(-c2cc(Oc3ccccc3C#N)c(Cl)cc2F)c1=S [Compound 1-66]
- SOY crop damage, phytotoxicity rating (0-100 scale) ([1]; 125 g ai/ha): 10
- SOY crop damage, phytotoxicity rating (0-100 scale) ([1]; 250 g ai/ha): 10
- RICE crop damage, phytotoxicity rating (0-100 scale) ([2]; 125 g ai/ha): 0
- RICE crop damage, phytotoxicity rating (0-100 scale) ([2]; 250 g ai/ha): 0
- CHEAL phytotoxicity rating (0-100 scale) ([3]; 125 g ai/ha): 100
- CHEAL phytotoxicity rating (0-100 scale) ([3]; 250 g ai/ha): 100
- IPOHE phytotoxicity rating (0-100 scale) ([4]; 125 g ai/ha): 90
- IPOHE phytotoxicity rating (0-100 scale) ([4]; 250 g ai/ha): 100
- SORHA phytotoxicity rating (0-100 scale) ([5]; 125 g ai/ha): 60
- SORHA phytotoxicity rating (0-100 scale) ([5]; 250 g ai/ha): 75
- SETVI phytotoxicity rating (0-100 scale) ([6]; 125 g ai/ha): 99
- SETVI phytotoxicity rating (0-100 scale) ([6]; 250 g ai/ha): 100
- ABUTH phytotoxicity rating (0-100 scale) ([7]; 125 g ai/ha): 85
- ABUTH phytotoxicity rating (0-100 scale) ([7]; 250 g ai/ha): 99
- CASOB phytotoxicity rating (0-100 scale) ([8]; 125 g ai/ha): 35
- CASOB phytotoxicity rating (0-100 scale) ([8]; 250 g ai/ha): 65
- AMARE phytotoxicity rating (0-100 scale) ([9]; 125 g ai/ha): 100
- AMARE phytotoxicity rating (0-100 scale) ([9]; 250 g ai/ha): 100
- DIGSA phytotoxicity rating (0-100 scale) ([10]; 125 g ai/ha): 90
- DIGSA phytotoxicity rating (0-100 scale) ([10]; 250 g ai/ha): 99
- ECHCG phytotoxicity rating (0-100 scale) ([11]; 125 g ai/ha): 55
- ECHCG phytotoxicity rating (0-100 scale) ([11]; 250 g ai/ha): 60
- AMBEL phytotoxicity rating (0-100 scale) ([12]; 125 g ai/ha): 60
- AMBEL phytotoxicity rating (0-100 scale) ([12]; 250 g ai/ha): 65
- CHEAL phytotoxicity rating (0-100 scale) ([13]; 125 g ai/ha): 98
- CHEAL phytotoxicity rating (0-100 scale) ([13]; 250 g ai/ha): 100
- IPOHE phytotoxicity rating (0-100 scale) ([14]; 125 g ai/ha): 70
- IPOHE phytotoxicity rating (0-100 scale) ([14]; 250 g ai/ha): 85
- SORHA phytotoxicity rating (0-100 scale) ([15]; 125 g ai/ha): 0
- SORHA phytotoxicity rating (0-100 scale) ([15]; 250 g ai/ha): 0
- SETVI phytotoxicity rating (0-100 scale) ([16]; 125 g ai/ha): 0
- SETVI phytotoxicity rating (0-100 scale) ([16]; 250 g ai/ha): 0
- ABUTH phytotoxicity rating (0-100 scale) ([17]; 125 g ai/ha): 90
- ABUTH phytotoxicity rating (0-100 scale) ([17]; 250 g ai/ha): 90
- CASOB phytotoxicity rating (0-100 scale) ([18]; 125 g ai/ha): 75
- CASOB phytotoxicity rating (0-100 scale) ([18]; 250 g ai/ha): 75
- AMARE phytotoxicity rating (0-100 scale) ([19]; 125 g ai/ha): 70
- AMARE phytotoxicity rating (0-100 scale) ([19]; 250 g ai/ha): 70
- DIGSA phytotoxicity rating (0-100 scale) ([20]; 125 g ai/ha): 0
- DIGSA phytotoxicity rating (0-100 scale) ([20]; 250 g ai/ha): 0
- ECHCG phytotoxicity rating (0-100 scale) ([21]; 125 g ai/ha): 0
- ECHCG phytotoxicity rating (0-100 scale) ([21]; 250 g ai/ha): 0
- AMBEL phytotoxicity rating (0-100 scale) ([22]; 125 g ai/ha): 75
- AMBEL phytotoxicity rating (0-100 scale) ([22]; 250 g ai/ha): 75
- SOY crop damage, phytotoxicity rating (0-100 scale) ([23]; 125 g ai/ha): 0
- SOY crop damage, phytotoxicity rating (0-100 scale) ([23]; 250 g ai/ha): 0
- CORN crop damage, phytotoxicity rating (0-100 scale) ([24]; 125 g ai/ha): 0
- CORN crop damage, phytotoxicity rating (0-100 scale) ([24]; 250 g ai/ha): 0
- RICE crop damage, phytotoxicity rating (0-100 scale) ([25]; 125 g ai/ha): 40
- RICE crop damage, phytotoxicity rating (0-100 scale) ([25]; 250 g ai/ha): 45
- CORN crop damage, phytotoxicity rating (0-100 scale) ([26]; 125 g ai/ha): 0
- CORN crop damage, phytotoxicity rating (0-100 scale) ([26]; 250 g ai/ha): 0
